Test system: T1, CYP3A
T1 construct: gene Cyp3a1; native isoenzyme mixture in liver microsomes of female SD rats
Assay: UHPLC-MS/MS of 1-hydroxymidazolam formation, cocktail probe, Michaelis-Menten fit
Settings: liver microsomes of vehicle control rats; cocktail of six substrates together; NADPH regeneration system, pH 7.4, 37 °C

## Cc1ncc2n1-c1ccc(Cl)cc1C(c1ccccc1F)=NC2 [midazolam]
  Km: 1.99 ± 0.267 µM
